# What was measured:
# [1] = test system: brain myelination (myelin water fraction); assay: Cross-sectional correlation of infant formula nutrient content with brain myelination (myelin water fraction, mcDESPOT MRI); type: in vivo, human; conditions: children up to 5 years fed infant formulas
# Procedure: MRI (Magnetic Resonance Imaging): MRI brain scans of infants and children between 0 and 5 years were acquired using a white matter imaging technique. This technique provides a quantitative measure, the Myelin Water Fraction (MWF), which is a surrogate marker of myelin content in the brain. When mapped as a function of time across early childhood, myelination trajectories can be generated.
# Infant formula composition: six infant formulas fed to infants participating in a study were analyzed for their composition/level of myelin-relevant nutrients.
# Each infant was scanned using the mcDESPOT (multicomponent Driven Equilibrium Single Pulse Observation of T1 and T2) white matter imaging technique Deoni et al. (Magn. Reson. Med. 2008, 60:1372-1387), which provides a quantitative measure of the myelin water fraction (MWF)—a measure of myelin content—at each point throughout the brain. All infants were scanned during natural (i.e. non-sedated) sleep using acoustically-muffled mcDESPOT imaging protocols. Total imaging times ranged from 19 minutes for the youngest toddlers to 24 minutes for the older 4 year-old children.
# Following image alignment, non-brain signal removal, and correction for main and transmit magnetic field (B0 and B1) inhomogeneities, a three-pool signal model (comprising the myelin-associated water; intra-extra axonal water; and a non-exchanging free-water pool) was fit to the mcDESPOT data to derive voxel-wise MWF maps.
# Each child's map was then non-linearly aligned to a study specific template. White matter masks, corresponding to 5 bilateral regions (frontal, temporal, occipital, parietal, and cerebellar WM) as well as the body, genu, and splenium of the corpus callosum were created from common databases, registered to the common template, and superimposed onto each child's MWF map. Mean values for each region were then determined for each child and used for subsequent developmental analysis and trajectory modeling.
# From the cohort described above, children up to 5 years of age that were fed different infant formulas during infancy were included in a large correlation analysis to examine the relationship between formula nutrient composition and brain myelination. The 6 most frequently used formulas in that cohort were analyzed for their nutritional composition. A single general linear model (GLM) was constructed that modeled all quantified nutrients and child age.
# Spearman rank correlations were then calculated between the nutrient content and myelin content value (adjusted for child age) at each image voxel, or point within the brain. Significance was defined as p<0.05 corrected for type 1 error using a cluster based correction approach. An association or trend was defined as p<0.15. […] To reduce the number of nutritional components in the model, we examined the inter-nutritional correlation. Using a conservative threshold of 0.9, we excluded nutritional components that were highly correlated with each other across the various formulas.
# [2] = test system: neural progenitor cell (NPCs) from E14 mouse neocortex; assay: Differentiation assay: quantification of neuronal and glial marker expression in monolayer NPC culture; type: cell-based; conditions: 9 d culture; for astrocyte cell density (astrocytic): GFAP normalized to DAPI
# Procedure: Generation of neural progenitor cell (NPCs) libraries: dissociation of E14 mouse neocortex E14 pup brains were harvested and placed in ice cold DPBS(1×)+10% Pen/Strep, then they were dissected using a dissecting microscope. From each pup, one brain hemisphere was placed in 2 ml of Neurobasal media/10% P/S/10× Hepes and another brain hemisphere was placed in another tube. The tissue from each tube was aseptically and manually dissociate into single cells, neurobasal complete medium was added and centrifuged at […] for 5 min. The tissue was then re-suspended in neurobasal complete media with GF and placed in a corning suspension culture dish 100 mm×20 mm (#430591). […] Plating Cells in 24 Well Plate for Monolayer Differentiation or EdU Incorporation Assays 24 well glass bottom plates (Mat Tek […]-1.0-13-F Case, glass bottom 24 well plates) were coated with poly-L-ornithin (Sigma P4957) and Fibronection (Sigma F1141) before use in the assay below. Cells were plated (10,000 cells per well) in Complete media with GF for 24 hours (500 ul per well). […] Differentiation Assay: Quantification of Neuronal, Glial and NPC Marker Expression After 24 hours, it was ensured that cells were attached to the plate, then the medium was carefully removed. […] Note: medium contains no GF. […] The cells were culture for 9 d in media plus 2% Nu Serum, the medium was changed every 2nd day. For fixation and subsequent immunohistochemical analysis the medium was removed, the cells were rinsed once with 1×PBS for 5 min, and fixed with 4% PFA in 1×PBS for 15 min at 4° C. The cells were then washed twice with 1×PBS for 5 min, left in 1×PBS, wrapped in foil and left overnight at 4C, or they were immediately primary antibody staining was carried out. PBS was removed and enough AB staining solution (1% Goat serum, 1×PBS, and 0.1% triton X) was added to cover the bottom, the block was kept at room temp for 1 hour. Primary antibody dilutions were made in appropriate amount of AB staining solution, 250 ul per well (the antibodies were only kept out on ice for a short time, mouse anti-MAP2 or TUJ1 1:500 (neuron marker), rabbit anti-GFAP (glial marker) 1:1000, chicken anti-Nestin CFP (EGFP antibody (progenitor cell marker)) 1:1000. AB staining solution was removed and a solution of primary antibodies was added to each chamber. The cells were wrapped in foil and kept overnight 4° C. The cells were then washed with 400 ul of AB staining solution for 5 min once to remove primary antibodies. Secondary antibody solutions were made (enough for 250 ul of each chamber) (Goat anti-mouse alexa 488 1:2000, anti-rabbit Cy3 (1:500), anti-chicken alexa 647 1:500, and 1:5000 Dapi). The cells were incubated at room temp for 1 hour in the dark and washed 2 time in AB staining solution for five mins. They were then kept at 4° C. or Imaged using a GE Cytell imager or LSM 710, Zeiss confocal microscope and analyze with ImageJ software (National Institutes of Health). Microtubule-Associated Protein 2 (MAP2), Neuronal Beta-Tubulin III(TuJ1), Glial Fibrillary Acidic Protein (GFAP), and Nestin CFP (EGFP Antibody). Each marker expression was measured on collected images (integrated density measure in ImageJ) and normalized to DAPI fluorescence, marking all nuclei (integrated density measure). Octanoic Acid were labeled with neuronal beta-tubulin III (TuJ1), subsequent compounds were labeled with Microtubule-associated protein 2 (MAP2).
# [3] = test system: neural progenitor cell (NPCs) from E14 mouse neocortex; assay: Monolayer culture NPC proliferation assay (EdU incorporation / DAPI); type: cell-based; conditions: lowSM (Dose 1: 10 nM); 3 days culture
# Procedure: Monolayer Culture NPC Proliferation Assay (Incorporation of EdU—S Phase Marker)
# After 24 h, it was ensured that cells had attached to the plate then the medium was carefully removed. 500 μL of compound media plus GF. was added. The cells were cultured for 3 days in appropriate media.
# Control and compound media was made with #2 media and contains 29 uM Choline, Low (5 uM) and medium (70 uM) choline media was made with #3 media.
# EDU incorporation was measured using Click-IT® EdU Alexa Fluor® 555 Imaging Kit (Life technologies, #c10338).
# At the end of day 3 EdU was added to each well at 10 μM for 30 minutes prior to fixation.
# For fixation and subsequent immunohistochemical analysis, the medium was removed, the cells were rinsed once with 1×PBS for 5 min, and fixed with 4% PFA in 1×PBS for 15 min at 4° C., then the cells were washed twice with 1×PBS for 5 min, left in 1×PBS, wrapped in foil and leave overnight at 4° C., or staining was proceeded with.
# PBS was removed and enough AB staining solution (1% Goat serum, 1×PBS, and 0.1% triton X) added to cover the bottom, the block was kept at room temp for 1 hour. The cells were stained for EDU. The cells were Incubated for 30 min at room temp, in the dark. The cells were washed with 1×PBS and stained with Dapi 1:5000 ul for 15 min. […]
# [4] = test system: neural progenitor cell (NPCs) from E14 mouse neocortex; assay: Neurosphere counts in 96-well plates; type: cell-based; conditions: Low (Dose 1: 10 nM); cells grown 2 days
# Procedure: Generation of neural progenitor cell (NPCs) libraries:
# E14 pup brains were harvested and placed in ice cold DPBS(1×)+10% Pen/Strep, then they were dissected using a dissecting microscope. From each pup, one brain hemisphere was placed in 2 ml of Neurobasal media/10% P/S/10× Hepes and another brain hemisphere was placed in another tube.
# The tissue from each tube was aseptically and manually dissociate into single cells, neurobasal complete medium was added and centrifuged at 130G for 5 min. The tissue was then re-suspended in neurobasal complete media with GF and placed in a corning suspension culture dish 100 mm×20 mm (#430591). Cells were passage twice using a 1:3 ratio, after what they were centrifuged (130 g 5 min), resuspended in freezing media (10% DMSO and neurobasal complete media, no GF) and frozen in liquid nitrogen (LN2).
# Plating Cells in 96-Well Plates for Neurosphere Counts and Diameters Only
# 3-4 mLs of cells were taken out of the tilted plate and add to a 15 ml conical. Some of the remaining media was used to rinse down the plate. All remaining media was drawn up and put into a 15 ml conical tube, and Spun at 130G for 5 min. All media was removed. […]
# 1. […] Imaging was carried out using a GE Cytell imager or LSM 710, Zeiss confocal microscope and the diameters of neurospheres with ImageJ software (National Institutes of Health) was analysed.
compound,measurement,setting,value
"CCCCC/C=C\C/C=C\C/C=C\C/C=C\CCCC(=O)O [AA, arachidonic acid]",association of nutrient with myelination (myelin water fraction) over time in the brain,[1],an association with myelination (myelin water fraction) was observed over time in the brain
"CCCCCCCC(=O)O [Octanoic acid, Octanoic Acid]",astrocyte cell density (astrocytic),[2]; HighOA (Dose 3: 250 μM),7.9
same,Neuronal Cell density (Neuronal),"[2]; HighOA (Dose 3: 250 μM), TuJ1 normalized to DAPI",1.7
same,astrocyte cell density (astrocytic),[2]; lowOA (Dose 1: 10 μM),3.7
same,Neuronal Cell density (Neuronal),"[2]; lowOA (Dose 1: 10 μM), TuJ1 normalized to DAPI",1.2
same,astrocyte cell density (astrocytic),[2]; medOA (Dose 2: 50 μM),6.1
same,Neuronal Cell density (Neuronal),"[2]; medOA (Dose 2: 50 μM), TuJ1 normalized to DAPI",1.8
"CCCCCCCCCCCCCCCCCC(=O)O [Stearic acid, Stearic Acid]",astrocyte cell density (astrocytic),[2]; highSA (Dose 3: 10 μM),0.85
same,Neuronal Cell density (Neuronal),"[2]; highSA (Dose 3: 10 μM), MAP2 normalized to DAPI",0.64
same,astrocyte cell density (astrocytic),[2]; lowSA (Dose 1: 100 nM),0.68
same,Neuronal Cell density (Neuronal),"[2]; lowSA (Dose 1: 100 nM), MAP2 normalized to DAPI",0.54
same,astrocyte cell density (astrocytic),[2]; medSA (Dose 2: 1 μm),0.81
same,Neuronal Cell density (Neuronal),"[2]; medSA (Dose 2: 1 μm), MAP2 normalized to DAPI",0.66
[Ca+2] [calcium],association of nutrient with myelination (myelin water fraction) over time in the brain,[1],an association with myelination (myelin water fraction) was observed over time in the brain
[Mg+2] [magnesium],association of nutrient with myelination (myelin water fraction) over time in the brain,[1],an association with myelination (myelin water fraction) was observed over time in the brain
[P] [phosphorus],association of nutrient with myelination (myelin water fraction) over time in the brain,[1],an association with myelination (myelin water fraction) was observed over time in the brain
[Zn] [zinc],association of nutrient with myelination (myelin water fraction) over time in the brain,[1],an association with myelination (myelin water fraction) was observed over time in the brain
Sphingomyelin,association of nutrient with myelination (myelin water fraction) over time in the brain,[1],an association with myelination (myelin water fraction) was observed over time in the brain
same,neuronal proliferation (DAPI),[3],280
same,"number of neurospheres, Average (Mean)",[4],94
iron,association of nutrient with myelination (myelin water fraction) over time in the brain,[1],an association with myelination (myelin water fraction) was observed over time in the brain
phosphatidylcholine,association of nutrient with myelination (myelin water fraction) over time in the brain,[1],an association with myelination (myelin water fraction) was observed over time in the brain
phosphatidylinositol,association of nutrient with myelination (myelin water fraction) over time in the brain,[1],an association with myelination (myelin water fraction) was observed over time in the brain
vitamin B12,association of nutrient with myelination (myelin water fraction) over time in the brain,[1],an association with myelination (myelin water fraction) was observed over time in the brain
